According to patent US6517856B1, “Insecticide resistance assay” (priority 1998, dated 2003):

Columns and labels:
[1] = test system: Heliothis virescens neonates; assay: Feeding disruption bioassay on meal pads and diet cylinders (toxin incorporation, diet comparison); format: in vivo; settings: for percentage of the population producing >5 fecal pellets: Hv Washington neonates, 0.04 μg MVP per ml diet, 24 h
Procedure: Feeding disruption bioassays follow the method Examples 1-9. Bioassay diets contain 20 mg of the dye Trypan Blue (Direct Blue 14; Matheson Coleman and Bell, Norwood, Ohio) per 100 ml of diet. The blue dye serves as a marker of fecal origin, with only larvae feeding on blue diet producing blue feces. All bioassay results were taken from two replicates consisting of 24 insects per replicate. Dead larvae (defined as no movement for 30 s after prodding with a blunt probe) at the assay endpoint (24 h) were discarded and not included in the results in order to avoid interpreting mortality as a non-feeding assay response. Assays were conducted in clear 8-well microtiter plate strips (Nalge Nunc Int., Napersville, Ill.). Strip caps were separated with a scalpel to allow individual removal, facilitating observation of individual wells while not allowing neighboring larvae to escape. A #3 insect pin was used to puncture each cap twice, which permitted ventilation in order to reduce condensation within wells and provide larvae with air.
The original bioassay method was modified by substituting 100 μl meal pads (diameter=6 mm) for fresh diets. Except where noted, toxins were incorporated into the meal pads by hydrating with aqueous solutions containing appropriate concentrations of the B. thuringiensis CryIAc formulation MVP (Mycogen, San Diego, Calif.). Serial MVP dilutions were used in each assay, with dilution series for each replicate of a treatment made on different days. Hydration of 100 μl meal pads was by pipetting two 40 μl aliquots (water volume=80 μl) in order to prevent pads from floating in the wells, as discussed above. Lyophilized diet cylinders (400 μl) were hydrated to original wet weight as previously described with an aqueous MVP dilution, resulting in a final concentration of 0.04 μg MVP per ml diet. After 1 h, cylinders were divided into 3 sections with a scalpel and individual sections were placed in 8-well microtiter strips, 1 section per well. The feeding disruption bioassay was then used to assess the diffusion of MVP through the cylinder using one larva per cylinder section. All bioassay concentrations reported are final diet concentrations, and not those of solutions used to hydrate meal pads.

[2] = test system: tobacco budworm (H. virescens); assay: Feeding disruption assay, CryIAc in Trypan Blue diet (fresh diet); format: in vivo, Heliothis virescens
Procedure: The blue diet used in the feeding disruption bioassay is an agar based insect meal containing 20 mg of Trypan Blue (Direct Blue 14; Matheson Coleman & Bell, Norwood, Ohio) per 100 ml of standard artificial diet, and containing different concentrations of CryIAc (MVP, Mycogen). Larvae feeding on this colored diet produced blue feces which were easily distinguished by observation from feces derived from other food sources. Assays were conducted in 1-ounce clear plastic cups (Solo Cup Company, Urbana, Ill.; approximately […] in diameter and ¾ inches high) fitted with white cardboard tops, which are routinely used for insect rearing in the inventors' laboratories. The clear plastic allowed for the observation of blue feces without opening the container.
Third instars from Wake (Bt susceptible), YHD2 (Bt resistant), and YHD2×Wake hybrid strains of the tobacco budworm (H. virescens) were used. Instars weighed 30±5 mg and were reared either on standard artificial diet or cotton plants. Instars were starved for one hour and then transferred to clear plastic assay cups, one larvae per cup. The starvation treatment synchronized the beginning of feeding between individuals once transferred to the dye-containing diet. The effect of different concentrations of CryIAc (0 to 0.064 μg CryIAc/ml diet) on the production of blue feces was examined for one to 24 hours at 27±1° C. and […] (light:dark). Studies were conducted in triplicate with 15 larvae per replicate. Once a diagnostic concentration and optimum assay time were identified from these experiments, the accuracy of resistance detection was investigated for individual resistant and susceptible neonates of H. virescens. These experiments were duplicated for 25 resistant and 25 susceptible budworms from two different budworm generations.
The diagnostic concentration for resistance detection was also investigated for its ability to distinguish Wake susceptible H. virescens from H. zea. In addition, dose response studies were conducted to identify a concentration of Bt that would distinguish resistant YHD2 neonates of H. virescens from H. zea. Dose response studies were duplicated for 25 resistant (HD2) tobacco budworms and 25 bollworms from two generations at different doses of Bt ranging from 0 to 1000 μg CryIAc/ml of blue diet.

[3] = Wake third instars, 0.008 μg/ml, 24 hours
[4] = Wake third instars, 0.032 μg CryIAc/ml diet, 24 hours
[5] = Wake third instars, 0.032 μg CryIAc/ml, 4 hours
[6] = Wake third instars, 0.032 μg CryIAc/ml, 8 hours
[7] = YHD2 third instars, 0.008 μg/ml, 24 hours
[8] = YHD2 third instars, 0.032 μg CryIAc/ml diet, 24 hours
[9] = YHD2 third instars, 0.032 μg CryIAc/ml, 4 hours
[10] = YHD2 third instars, 0.032 μg CryIAc/ml, 8 hours
[11] = YHD2×Wake hybrid third instars, 0.032 μg/ml, 24 hours

Which results are given for “CryIAc: Bacillus thuringiensis CryIAc δ-endotoxin, commercial formulation MVP (Mycogen), >98.0% δ endotoxin”?
percentage of the population producing >5 fecal pellets ([1]; 100 μl meal pads): 10.4%; percentage of the population producing >5 fecal pellets ([1]; 400 μl cylinder, bottom section): 6.4%; percentage of the population producing >5 fecal pellets ([1]; 400 μl cylinder, middle section): 4.2%; percentage of the population producing >5 fecal pellets ([1]; 400 μl cylinder, top section): 6.3%; stability in diet during the lyophilization process ([1]; judged by Hv 97 bioassay, 0.04 μg MVP per ml diet incorporated before lyophilization): apparently stable; blue fecal pellets per larva [2, 3]: 4 /larva; total blue fecal pellets [2, 3]: 63 fecal pellets/15 larvae; blue fecal pellets per larva [2, 4]: 0.8 /larva; total blue fecal pellets [2, 4]: 12 fecal pellets/15 larvae; blue fecal pellets per larva [2, 5]: 0.1 /larva; total blue fecal pellets [2, 5]: 1.6 fecal pellets/15 larvae; blue fecal pellets per larva [2, 6]: 0.3 /larva; total blue fecal pellets [2, 6]: 5 fecal pellets/15 larvae; percentage of larvae that had produced blue feces ([2]; Wake third instars, 0.032 μg CryIAc/ml, after 14 hours, ±1 SE): 2.2±3.9%; minimum fecal production by any individual ([2]; YHD2 neonates, 500 μg CryIAc/ml blue diet, 24 hours): five; fecal pellets produced per 15 larvae ([2]; YHD2 third instars reared on cotton, 0.032 μg CryIAc/ml Blue diet, 24 hours): > 140 fecal pellets per 15 larvae; blue fecal pellets per larva [2, 7]: 53 /larva; total blue fecal pellets [2, 7]: 800 fecal pellets/15 larvae; blue fecal pellets per larva [2, 8]: 31 /larva; total blue fecal pellets [2, 8]: 470 fecal pellets/15 larvae; blue fecal pellets per larva [2, 9]: 3 /larva; total blue fecal pellets [2, 9]: 46 fecal pellets/15 larvae; blue fecal pellets per larva [2, 10]: 9 /larva; total blue fecal pellets [2, 10]: 129 fecal pellets/15 larvae; percentage producing one or more blue fecal pellets ([2]; YHD2 third instars, 0.032 μg CryIAc/ml, in 5 hours, ±1 SE): 85±3.9%; percentage producing one or more blue fecal pellets ([2]; YHD2 third instars, 0.032 μg CryIAc/ml, in 9 hours, ±1 SE): 95±3.9%; percentage producing one or more blue fecal pellets ([2]; YHD2 third instars, 0.032 μg CryIAc/ml, in 14 hours, ±1 SE): 100.0±0.0%; blue fecal pellets per larva [2, 11]: 5 /larva; total blue fecal pellets [2, 11]: 68 fecal pellets/15 larvae; percentage producing 0-2 fecal pellets in 24 h ([2]; laboratory susceptible H. virescens strain, 0.032 μg MVP per ml diet): 88.0%; number of H. virescens producing six blue fecal pellets (the maximum) ([2]; susceptible (Wake) neonates, 0.032 μg CryIAc/ml diet, 24 hour): 1 out of 50; blue feces production ([2]; susceptible (Wake) third instars reared on cotton, 0.032 μg CryIAc/ml Blue diet): Essentially no blue feces were produced
